Source: patent US12655116B2, “Substituted isophthalic acid diamides” (Bayer Aktiengesellschaft, priority 2020, dated 2026)

Columns and labels:
AMARE [1] = assay: Post-emergence herbicidal action against AMARE; assay type: in vivo, Amaranthus retroflexus; conditions: 20 g/ha, visual assessment about 3 weeks after treatment, 100% = plants have died, 0% = like control plants
Procedure, shortened: (§1)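 Percent herbicidal action is rated by eye about 3 weeks after treatment against untreated controls, where 100% means dead plants and 0% means like controls. Plants in sandy loam are sprayed on green parts at the one-leaf stage with aqueous WP or EC preparations at 600 to 800 l/ha plus 0.2% wetting agent.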

VERPE [2] = assay: Post-emergence herbicidal action against VERPE; assay type: in vivo, Veronica persica; conditions: 20 g/ha
Procedure, shortened: as §1

DIGSA [3] = assay: Pre-emergence herbicidal action against DIGSA; assay type: in vivo, Digitaria sanguinalis
Procedure, shortened: (§2)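 Seeds sown in sandy loam, soil-covered; compound sprayed on soil surface pre-emergence. Application: WP/EC, 600–800 l/ha, 0.2% wetting agent. Readout: visual % damage at 3 weeks.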

AVEFA [4] = assay: Post-emergence herbicidal action against AVEFA; assay type: in vivo, Avena fatua; conditions: visual assessment about 3 weeks after treatment, 100% = plants have died, 0% = like control plants
Procedure, shortened: as §1

POLCO = assay: Pre-emergence herbicidal action against POLCO; assay type: in vivo, Polygonum convolvulus; conditions: dosage 80 g/ha
Procedure, shortened: as §2

PHBPU = assay: Post-emergence herbicidal action against PHBPU; assay type: in vivo, Pharbitis purpurea
Procedure, shortened: as §1

MATIN [5] = assay: Post-emergence herbicidal action against MATIN; assay type: in vivo, Matricaria inodora; conditions: dosage 20 g/ha
Procedure, shortened: as §1

ECHCG [6] = assay: Post-emergence herbicidal action against ECHCG; assay type: in vivo, Echinochloa crus-galli
Procedure, shortened: as §1

SETVI [7] = assay: Post-emergence herbicidal action against SETVI; assay type: in vivo, Setaria viridis
Procedure, shortened: as §1

ABUTH [8] = assay: Pre-emergence herbicidal action against ABUTH; assay type: in vivo, Abutilon theophrasti; conditions: for Pre-emergence action against ABUTH (herbicidal activity): 80 g/ha, scored visually after 3 weeks vs untreated controls (100% = plants have died, 0% = like control plants); for Pre-emergence action against ABUTH (herbicidal activity in percent): dosage 20 g/ha, scored visually after 3 weeks vs untreated controls, 100% = plants have died, 0% = like control plants
Procedure, shortened: as §2

SETVI [9] = assay: Pre-emergence herbicidal action against SETVI; assay type: in vivo, Setaria viridis; conditions: dosage 80 g/ha
Procedure, shortened: as §2

VIOTR = assay: Pre-emergence herbicidal action against VIOTR; assay type: in vivo, Viola tricolor
Procedure, shortened: as §2

ECHCG [10] = assay: Pre-emergence herbicidal action against ECHCG; assay type: in vivo, Echinochloa crus-galli
Procedure, shortened: as §2

MATIN [11] = assay: Pre-emergence herbicidal action against MATIN; assay type: in vivo, Matricaria inodora
Procedure, shortened: as §2

DIGSA [12] = assay: Post-emergence herbicidal action against DIGSA; assay type: in vivo, Digitaria sanguinalis; conditions: for Post-emergence action against DIGSA: 20 g/ha
Procedure, shortened: as §1

ABUTH [13] = assay: Post-emergence herbicidal action against ABUTH; assay type: in vivo, Abutilon theophrasti; conditions: visual assessment about 3 weeks after treatment vs untreated controls
Procedure, shortened: as §1

AMARE [14] = assay: Pre-emergence herbicidal action against AMARE; assay type: in vivo, Amaranthus retroflexus
Procedure, shortened: as §2

VERPE [15] = assay: Pre-emergence herbicidal action against VERPE; assay type: in vivo, Veronica persica; conditions: dosage 80 g/ha
Procedure, shortened: as §2

ALOMY = assay: Pre-emergence herbicidal action against ALOMY; assay type: in vivo, Alopecurus myosuroides; conditions: 80 g/ha, pre-emergence, scored visually after 3 weeks vs untreated controls (100% = plants have died, 0% = like control plants)
Procedure, shortened: as §2

AVEFA [16] = assay: Pre-emergence herbicidal action against AVEFA; assay type: in vivo, Avena fatua; conditions: 80 g/ha, pre-emergence
Procedure, shortened: as §2

[17] = 20 g/ha, scored visually after 3 weeks vs untreated controls, 100% = plants have died, 0% = like control plants
[18] = 80 g/ha, scored visually after 3 weeks vs untreated controls (100% = plants have died, 0% = like control plants)

SMILES	Pre-emergence action against DIGSA in % (DIGSA [3]; dosage 20 g/ha) [%]	Pre-emergence action against DIGSA in % (DIGSA [3]; dosage 80 g/ha) [%]	Post-emergence action at 20 g/ha against AVEFA in % (AVEFA [4]) [%]	Pre-emergence action against POLCO in % (POLCO) [%]	Post-emergence action against PHBPU in % (PHBPU; dosage 20 g/ha) [%]	Post-emergence action against MATIN in % (MATIN [5]) [%]	Post-emergence action against ECHCG in % (ECHCG [6]; dosage 5 g/ha) [%]	Post-emergence action against ECHCG in % (ECHCG [6]; dosage 20 g/ha) [%]	Pre-emergence action against ABUTH (herbicidal activity) (ABUTH [8]) [%]	Pre-emergence action against ABUTH (herbicidal activity in percent) (ABUTH [8]) [%]	Pre-emergence action against SETVI in % (SETVI [9]) [%]	Pre-emergence action against VIOTR in % (VIOTR; dosage 80 g/ha) [%]	Pre-emergence action against ECHCG in % (ECHCG [10]; 80 g/ha) [%]	Pre-emergence action against MATIN in % (MATIN [11]; dosage 20 g/ha) [%]	Pre-emergence action against MATIN in % (MATIN [11]; dosage 80 g/ha) [%]	Post-emergence action against DIGSA (DIGSA [12]) [%]	Post-emergence action against ABUTH in % (ABUTH [13]; dosage 5 g/ha) [%]	Post-emergence action against ABUTH in % (ABUTH [13]; dosage 20 g/ha) [%]	Pre-emergence action against AMARE in % (AMARE [14]; [17]) [%]	Pre-emergence action against AMARE in % (AMARE [14]; [18]) [%]	further results
Cc1c(C(=O)Nc2nnnn2C)ccc(C(F)F)c1C(=O)NCC(F)F [Example 1-49]	90	100	80	90	90	80	80	90	100	80	80	100	80	90	100	90	90	90	100	100	Post-emergence action at 20 g/ha against AMARE in % (AMARE [1]): 90%; Post-emergence action against VERPE in % (VERPE [2]): 90%; Post-emergence action against PHBPU in % (PHBPU; dosage 5 g/ha): 80%; Post-emergence action against SETVI in % (SETVI [7]; dosage 5 g/ha): 90%; Post-emergence action against SETVI in % (SETVI [7]; dosage 20 g/ha): 100%; Post-emergence action against DIGSA in % (DIGSA [12]; 5 g/ha): 80%; Pre-emergence action against VERPE in % (VERPE [15]): 100%; Pre-emergence action against ALOMY (herbicidal activity) (ALOMY): 80%
CCn1nnnc1NC(=O)c1ccc(C(F)(F)F)c(C(=O)NCC2CC2)c1C [Example 2-28]	100	100	90	90	80	80	80	80	100	100	100	100	100	100	100	80	80	80	100	100	Post-emergence action at 5 g/ha against AVEFA in % (AVEFA [4]; 5 g/ha): 80%; Pre-emergence action against AVEFA in % (AVEFA [16]): 90%; Pre-emergence action against VIOTR in % (VIOTR; dosage 20 g/ha): 100%; Pre-emergence action against ECHCG in % (ECHCG [10]; 20 g/ha): 80%; Pre-emergence action against VERPE in % (VERPE [15]): 80%; Pre-emergence action against ALOMY (herbicidal activity) (ALOMY): 90%
